# Measured values: the supplement of paper PMC10307832
# How the values were obtained:
# Assay in all cases: relative viability (nuclei count vs DMSO), 5 days (fraction); higher = more cells survive
# NCI-H1355 = test system: NCI-H1355
# In short: (§1)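 Lung cancer cell lines in 1536-well plates were dosed by pin tool the day after seeding, either with one drug alone or with a fixed anchor-drug dose plus five library-drug doses (not always all listed) in √10 steps. After 5 days, cells were fixed and their nuclei stained in one step (final 0.05% Triton X-100, 1% formaldehyde, 1 ug/ml Hoechst), then counted on 4× images. Relative viability is the nuclei count in treated wells divided by that in vehicle wells. Values are medians of duplicate plates.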
# NCI-H3122 = test system: NCI-H3122
# In short: as §1
# NCI-H1755 = test system: NCI-H1755
# In short: as §1
# NCI-H520 = test system: NCI-H520
# In short: as §1
# NCI-H358 = test system: NCI-H358
# In short: as §1
# A-427 = test system: A-427
# In short: as §1
# EKVX = test system: EKVX
# In short: as §1
# NCI-H1666 = test system: NCI-H1666
# In short: as §1
# NCI-H650 = test system: NCI-H650
# In short: as §1
# NCI-H1650 = test system: NCI-H1650
# In short: as §1
# NCI-H2228 = test system: NCI-H2228
# In short: as §1
# NCI-H838 = test system: NCI-H838
# In short: as §1
# NCI-H322M = test system: NCI-H322M
# In short: as §1
# NCI-H1944 = test system: NCI-H1944
# In short: as §1
# NCI-H441 = test system: NCI-H441
# In short: as §1
# NCI-H2347 = test system: NCI-H2347
# In short: as §1
# LK-2 = test system: LK-2
# In short: as §1
# ChaGo-K-1 = test system: ChaGo-K-1
# In short: as §1
# SW 1573 = test system: SW 1573
# In short: as §1
# NCI-H2085 = test system: NCI-H2085
# In short: as §1
# NCI-H460 = test system: NCI-H460
# In short: as §1
# NCI-H1734 = test system: NCI-H1734
# In short: as §1
# H3255 = test system: H3255
# In short: as §1
# NCI-H596 = test system: NCI-H596
# In short: as §1
structure (smiles),measurement,setting,value
CCCCCCCCCCCC1=C(O)C(=O)C=C(O)C1=O [Embelin] + C[C@@H](Oc1cc(-c2cnn(C3CCNCC3)c2)cnc1N)c1c(Cl)ccc(F)c1Cl [Crizotinib] (partner 1 µM),relative viability,NCI-H1355; first compound 0.08 µM,1.08
same,relative viability,NCI-H1355; first compound 0.8 µM,1.18
same,relative viability,NCI-H1355; first compound 2.53 µM,1.17
same,relative viability,NCI-H1355; first compound 8 µM,0.974
same,relative viability,NCI-H3122; first compound 0.08 µM,0.296
same,relative viability,NCI-H3122; first compound 0.8 µM,0.293
same,relative viability,NCI-H3122; first compound 2.53 µM,0.273
same,relative viability,NCI-H3122; first compound 8 µM,0.282
same,relative viability,NCI-H1755; first compound 0.08 µM,0.829
same,relative viability,NCI-H1755; first compound 0.8 µM,0.877
same,relative viability,NCI-H1755; first compound 2.53 µM,0.921
same,relative viability,NCI-H1755; first compound 8 µM,0.871
same,relative viability,NCI-H520; first compound 0.08 µM,0.894
same,relative viability,NCI-H520; first compound 0.8 µM,1
same,relative viability,NCI-H520; first compound 2.53 µM,1.07
same,relative viability,NCI-H520; first compound 8 µM,0.782
same,relative viability,NCI-H358; first compound 0.08 µM,0.635
same,relative viability,NCI-H358; first compound 0.8 µM,0.851
same,relative viability,NCI-H358; first compound 2.53 µM,0.547
same,relative viability,NCI-H358; first compound 8 µM,0.791
same,relative viability,A-427; first compound 0.08 µM,0.905
same,relative viability,A-427; first compound 0.8 µM,0.862
same,relative viability,A-427; first compound 2.53 µM,1.03
same,relative viability,A-427; first compound 8 µM,0.881
same,relative viability,EKVX; first compound 0.08 µM,0.78
same,relative viability,EKVX; first compound 0.8 µM,1.05
same,relative viability,EKVX; first compound 2.53 µM,1.07
same,relative viability,EKVX; first compound 8 µM,1.07
same,relative viability,NCI-H1666; first compound 0.08 µM,0.975
same,relative viability,NCI-H1666; first compound 0.8 µM,1.24
same,relative viability,NCI-H1666; first compound 2.53 µM,1.05
same,relative viability,NCI-H1666; first compound 8 µM,1.01
same,relative viability,NCI-H650; first compound 0.08 µM,0.772
same,relative viability,NCI-H650; first compound 0.8 µM,0.817
same,relative viability,NCI-H650; first compound 2.53 µM,0.711
same,relative viability,NCI-H650; first compound 8 µM,0.782
same,relative viability,NCI-H1650; first compound 0.08 µM,0.954
same,relative viability,NCI-H1650; first compound 0.8 µM,1.04
same,relative viability,NCI-H1650; first compound 2.53 µM,0.981
same,relative viability,NCI-H1650; first compound 8 µM,1.16
same,relative viability,NCI-H2228; first compound 0.08 µM,0.437
same,relative viability,NCI-H2228; first compound 0.8 µM,0.579
same,relative viability,NCI-H2228; first compound 2.53 µM,0.431
same,relative viability,NCI-H2228; first compound 8 µM,0.426
same,relative viability,NCI-H838; first compound 0.08 µM,0.874
same,relative viability,NCI-H838; first compound 0.8 µM,0.995
same,relative viability,NCI-H838; first compound 2.53 µM,0.961
same,relative viability,NCI-H838; first compound 8 µM,1.02
same,relative viability,NCI-H322M; first compound 0.08 µM,0.901
same,relative viability,NCI-H322M; first compound 0.8 µM,1.22
same,relative viability,NCI-H322M; first compound 2.53 µM,1.07
same,relative viability,NCI-H322M; first compound 8 µM,1.16
same,relative viability,NCI-H1944; first compound 0.08 µM,1.19
same,relative viability,NCI-H1944; first compound 0.8 µM,1.21
same,relative viability,NCI-H1944; first compound 2.53 µM,1.2
same,relative viability,NCI-H1944; first compound 8 µM,1.17
same,relative viability,NCI-H441; first compound 0.08 µM,0.749
same,relative viability,NCI-H441; first compound 0.8 µM,0.971
same,relative viability,NCI-H441; first compound 2.53 µM,0.788
same,relative viability,NCI-H441; first compound 8 µM,0.901
same,relative viability,NCI-H2347; first compound 0.08 µM,0.784
same,relative viability,NCI-H2347; first compound 0.8 µM,0.868
same,relative viability,NCI-H2347; first compound 2.53 µM,0.778
same,relative viability,NCI-H2347; first compound 8 µM,0.622
same,relative viability,LK-2; first compound 0.08 µM,0.227
same,relative viability,LK-2; first compound 0.8 µM,0.316
same,relative viability,LK-2; first compound 2.53 µM,0.229
same,relative viability,LK-2; first compound 8 µM,0.208
same,relative viability,ChaGo-K-1; first compound 0.08 µM,1.13
same,relative viability,ChaGo-K-1; first compound 0.8 µM,1.22
same,relative viability,ChaGo-K-1; first compound 2.53 µM,1.32
same,relative viability,ChaGo-K-1; first compound 8 µM,1.24
same,relative viability,SW 1573; first compound 0.08 µM,0.808
same,relative viability,SW 1573; first compound 0.8 µM,0.977
same,relative viability,SW 1573; first compound 2.53 µM,0.84
same,relative viability,SW 1573; first compound 8 µM,0.887
same,relative viability,NCI-H2085; first compound 0.08 µM,0.666
same,relative viability,NCI-H2085; first compound 0.8 µM,0.948
same,relative viability,NCI-H2085; first compound 2.53 µM,0.925
same,relative viability,NCI-H2085; first compound 8 µM,0.835
same,relative viability,NCI-H460; first compound 0.08 µM,0.818
same,relative viability,NCI-H460; first compound 0.8 µM,1.04
same,relative viability,NCI-H460; first compound 2.53 µM,1.02
same,relative viability,NCI-H460; first compound 8 µM,0.876
same,relative viability,NCI-H1734; first compound 0.08 µM,0.71
same,relative viability,NCI-H1734; first compound 0.8 µM,0.825
same,relative viability,NCI-H1734; first compound 2.53 µM,0.693
same,relative viability,NCI-H1734; first compound 8 µM,0.747
same,relative viability,H3255; first compound 0.08 µM,0.86
same,relative viability,H3255; first compound 0.8 µM,0.979
same,relative viability,H3255; first compound 2.53 µM,0.875
same,relative viability,H3255; first compound 8 µM,1.03
same,relative viability,NCI-H596; first compound 0.08 µM,1.06
same,relative viability,NCI-H596; first compound 0.8 µM,1.62
same,relative viability,NCI-H596; first compound 2.53 µM,1.2
same,relative viability,NCI-H596; first compound 8 µM,1.01
